Patent publication US20050256064A1, “9-Desoxoerythromycin compounds as prokinetic agents” (priority 2003, published 2005)
≈ marks a conversion by molar mass, not a printed value. Like-named read-outs stand apart in the source and are kept apart here.

How the values were obtained:
[1] = system: S. pneumoniae; assay: Antibacterial activity, MIC by serial dilutions on 96-well microtiter plates; assay type: cell-based; details: for MIC: Streptococcus pneumoniae
[2] = biological target: T1, human motilin receptor (Homo sapiens, UniProt O43193); details: HEK293 cells expressing human motilin receptor; as reported in Anal. Biochemistry; read-out: Motilin Agonist EC50; cited from earlier work
T1 construct: expressed in transfected cells; host or cells: HEK293
T1 sequence (O43193 whole entry): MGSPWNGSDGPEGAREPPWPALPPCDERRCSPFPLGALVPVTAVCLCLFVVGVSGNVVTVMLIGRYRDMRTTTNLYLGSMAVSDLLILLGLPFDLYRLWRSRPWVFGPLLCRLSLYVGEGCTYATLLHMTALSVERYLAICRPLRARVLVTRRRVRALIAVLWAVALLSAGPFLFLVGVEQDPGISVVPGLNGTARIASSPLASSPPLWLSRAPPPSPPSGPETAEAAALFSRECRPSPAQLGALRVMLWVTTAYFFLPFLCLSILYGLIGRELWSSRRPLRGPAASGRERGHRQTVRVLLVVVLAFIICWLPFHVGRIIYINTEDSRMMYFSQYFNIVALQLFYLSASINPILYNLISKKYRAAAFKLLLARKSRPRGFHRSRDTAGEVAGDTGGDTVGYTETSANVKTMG

[3] = system: rabbit duodenum strips; assay: Chronic dosing tachyphylaxis model; details: for % of the initial contraction after the fourth dose: dosed at EC90 at 0, 30, 60 and 90 min, response at 0 min set as 100%
Protocol: Rabbit duodenum strips were qualified as described above and dosed with test compound at its EC90 concentration. The contraction was recorded. When peak contractile force was reached, carbachol (1 μM) was added, and any further contraction was recorded. The resulting contraction is expressed as a fraction of the 1 μM carbachol contraction. The test compound and carbachol were washed away by changing the bath solution twice. The procedure was repeated at 30, 60, and 90 min following the initial dosing.

[4] = biological target: hERG (human ether-a-go-go related gene) potassium channel (Homo sapiens, UniProt Q12809); assay: in vitro
hERG (human ether-a-go-go related gene) potassium channel, sequence (Q12809 whole entry): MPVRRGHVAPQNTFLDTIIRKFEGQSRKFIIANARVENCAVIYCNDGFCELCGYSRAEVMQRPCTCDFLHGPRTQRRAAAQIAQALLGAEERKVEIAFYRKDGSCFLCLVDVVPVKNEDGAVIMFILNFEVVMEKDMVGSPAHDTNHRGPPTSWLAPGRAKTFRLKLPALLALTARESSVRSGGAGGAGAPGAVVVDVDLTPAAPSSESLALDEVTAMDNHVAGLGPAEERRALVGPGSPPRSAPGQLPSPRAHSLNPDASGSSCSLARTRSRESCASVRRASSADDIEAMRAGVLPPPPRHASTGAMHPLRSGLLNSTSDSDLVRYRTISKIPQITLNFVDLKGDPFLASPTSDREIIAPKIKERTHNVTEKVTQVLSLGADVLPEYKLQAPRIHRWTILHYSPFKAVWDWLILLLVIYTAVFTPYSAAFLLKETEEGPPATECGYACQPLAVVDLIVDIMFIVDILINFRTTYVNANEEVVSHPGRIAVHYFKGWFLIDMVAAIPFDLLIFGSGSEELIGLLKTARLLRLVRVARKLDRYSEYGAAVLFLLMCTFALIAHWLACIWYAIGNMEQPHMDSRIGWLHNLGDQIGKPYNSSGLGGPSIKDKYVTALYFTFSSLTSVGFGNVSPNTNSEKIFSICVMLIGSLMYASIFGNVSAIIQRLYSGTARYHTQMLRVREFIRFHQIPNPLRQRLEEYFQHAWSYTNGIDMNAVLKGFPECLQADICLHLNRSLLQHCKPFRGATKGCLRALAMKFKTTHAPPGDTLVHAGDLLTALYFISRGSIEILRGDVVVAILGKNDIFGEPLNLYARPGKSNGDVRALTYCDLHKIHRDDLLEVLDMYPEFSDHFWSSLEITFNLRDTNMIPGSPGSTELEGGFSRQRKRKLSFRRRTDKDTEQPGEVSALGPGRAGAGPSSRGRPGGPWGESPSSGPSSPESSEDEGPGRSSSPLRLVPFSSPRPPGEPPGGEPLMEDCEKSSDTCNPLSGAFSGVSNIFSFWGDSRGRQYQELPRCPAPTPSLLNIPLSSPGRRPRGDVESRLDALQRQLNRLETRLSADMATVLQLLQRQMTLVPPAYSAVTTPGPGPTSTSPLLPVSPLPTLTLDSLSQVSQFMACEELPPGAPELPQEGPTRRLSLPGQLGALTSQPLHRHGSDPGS
From the text: (§1) Stanat et al., Mol. Cellular Biochem., 254, 1-7 (2003), “Characterization of the Inhibitory Effects of Erythromycin and Clarithromycin on the HERG Potassium Channel”.

[5] = biological target: T1, human motilin receptor; assay: Motilin agonist potency (cell based assay); details: HEK293 cells expressing human motilin receptor
Protocol: The motilin agonist potency of compound I-b was evaluated in a cell based assay, according to the procedure disclosed in Carreras et al., Anal. Biochemistry, 300, 146-151 (2002), the disclosure of which is incorporated herein by reference. Briefly, in this method HEK293 cells are transformed with a synthetic gene for the human motilin receptor. Expression of the synthetic gene produces the human motilin receptor; then the activation of the receptor by the binding of a test compound thereto is measured.

[6] = system: rabbit duodenum tissue; assay: Motilin agonist potency (tissue based assay), rabbit duodenum contractility; details: Oryctolagus cuniculus, rabbit duodenum contraction
Protocol: The motilin agonist potency of compound I-b also was evaluated using a tissue based assay, using rabbit duodenum tissue-based contractility assay, generally following the procedure of Depoortere et al., J. Gastrointestinal Motility, 1, 150-159 (1989), the disclosure of which is incorporated herein by reference. Briefly, this method measures the ability of a compound to induce contractions in rabbit duodenal tissue, a tissue that responds to motilin.
Strips of rabbit duodenum were tested and qualified for use in the assay by as follows. Segments of rabbit duodenum, 20-30 cm distal to the pylorus were split longitudinally. The mucosa was removed and 2×2×15 mm strips of longitudinal smooth muscle were sliced from the segments. The strips were bathed in oxygenated Krebs solution at 37° C., with 1.5 g of tension, and contractions measured auxotonically. […] Qualified strips were mounted on the test apparatus.
Compound I-b was dissolved in dimethylsulfoxide (DMSO) to a final concentration of 10 mM. […]
The EC50 (concentration producing a half-maximal effect) was calculated as follows. The basal tension was subtracted from the compound-induced tension for each reading. […] Both R and Rmax are expressed as a fraction of the 1 μM carbachol contraction and range from 0 to 1. […]

[7] = biological target: cytochrome P450 3A4 (Homo sapiens, UniProt P08684); assay: Cytochrome P450 inhibition; assay type: in vitro ADME
cytochrome P450 3A4, sequence (P08684 whole entry): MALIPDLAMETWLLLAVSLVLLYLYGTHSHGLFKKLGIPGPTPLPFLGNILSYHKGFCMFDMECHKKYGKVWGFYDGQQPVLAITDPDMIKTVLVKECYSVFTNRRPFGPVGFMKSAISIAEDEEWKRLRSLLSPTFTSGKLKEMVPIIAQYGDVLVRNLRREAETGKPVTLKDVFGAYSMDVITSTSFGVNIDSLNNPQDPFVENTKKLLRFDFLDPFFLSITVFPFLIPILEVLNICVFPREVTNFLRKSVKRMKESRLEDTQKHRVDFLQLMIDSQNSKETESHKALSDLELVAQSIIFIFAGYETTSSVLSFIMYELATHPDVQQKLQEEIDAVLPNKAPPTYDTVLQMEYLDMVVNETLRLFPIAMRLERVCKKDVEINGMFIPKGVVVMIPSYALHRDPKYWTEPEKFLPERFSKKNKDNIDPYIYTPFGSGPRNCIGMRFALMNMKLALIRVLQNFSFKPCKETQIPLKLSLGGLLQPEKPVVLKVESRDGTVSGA
Protocol: The inhibitory effect of compound I-b on cytochrome P450 3A4, the most abundant of the cytrochrome P450 enzymes responsible for the metabolism of many drugs, was determined, using a method based on Stresser et al., Drug Metabolism Disposition, 30 (7), 845-52. A strong inhibitory effect is undesirable, as indicative of a high probability of interference with other drugs.

[8] = biological target: hERG potassium channel (Homo sapiens, UniProt Q12809); assay: in vitro; details: human
hERG potassium channel, sequence (Q12809 whole entry): as the sequence (Q12809 whole entry) above
From the text: as §1

CC[C@H]1OC(=O)[C@H](C)[C@@H](O[C@H]2C[C@@](C)(OC)[C@@H](O)[C@H](C)O2)[C@H](C)[C@@H](O[C@@H]2O[C@H](C)C[C@H](N(C)C)[C@H]2O)[C@](C)(O)C[C@@H](C)C(=O)[C@H](C)[C@@H](O)[C@]1(C)O [Erythromycin A, reference compound]
MIC ([1]; ATCC6301, read-out: Minimum Inhibitory Concentration (MIC)): 0.025 µg/mL (≈ 0.0341 µM) | MIC ([1]; ATCC49619, read-out: Minimum Inhibitory Concentration (MIC)): 0.049 µg/mL (≈ 0.0668 µM) | MIC ([1]; ATCC700671, read-out: Minimum Inhibitory Concentration (MIC)): 0.049 µg/mL (≈ 0.0668 µM)

CC[C@H]1OC(=O)[C@H](C)[C@@H](OC2C[C@@](C)(OC)C[C@H](C)O2)[C@H](C)[C@@H](OC2O[C@H](C)C[C@H](N(C)CC)[C@H]2O)[C@@]2(C)CC(C)=C(O2)[C@H](C)[C@@H](O)[C@H]1C (some centres unmarked) [ABT 229]
EC50 [2]: 40 nM

CCC1OC(=O)C(C)C(OC2CC(C)(OC)C(O)C(C)O2)C(C)C(OC2OC(C)CC(N(C)CCO)C2O)C(C)(O)CC(C)CC(C)C(O)C1(C)O (centres unmarked) [Compound I-e, N-Desmethyl-N-(2-hydroxyethyl)-9-desoxoerythromycin A]
% of the initial contraction after the fourth dose [3]: 85±11% | Inhibition (%) at Specified Compound Concentration ([4]; 10 µM): 57.1% | Inhibition (%) at Specified Compound Concentration ([4]; 30 µM): 84.3%

CC[C@H]1OC(=O)[C@H](C)[C@@H](O[C@H]2C[C@@](C)(OC)[C@@H](O)[C@H](C)O2)[C@H](C)[C@@H](O[C@@H]2O[C@H](C)C[C@H](N(C)C(C)C)[C@H]2O)C(C)(O)C[C@@H](C)C[C@H](C)[C@@H](O)[C@]1(C)O (some centres unmarked) [Compound I-b, N-Desmethyl-N-isopropyl-9-desoxoerythromycin A]
EC50 [5]: 1200 nM | EC50 ([6]; normalized to 1 μM carbachol, read-out: EC50 (concentration producing a half-maximal effect)): 180 nM | EC90 ([6]; approximated as ten times EC50 and verified, read-out: EC90 (concentration producing 90% of the maximal effect)): 1800 nM | MIC ([1]; ATCC6301, S. pneumoniae strain ATCC 6301, read-out: Minimum Inhibitory Concentration (MIC)): 50 µg/mL (≈ 66.8 µM) | MIC ([1]; ATCC49619, S. pneumoniae strain ATCC 49619, read-out: Minimum Inhibitory Concentration (MIC)): 50 µg/mL (≈ 66.8 µM) | MIC ([1]; ATCC700671, S. pneumoniae strain ATCC 700671, read-out: Minimum Inhibitory Concentration (MIC)): > 200 µg/mL | antibacterial activity ([1]; erythromycin A sensitive strains of S. pneumoniae, in words): low antibacterial activity | Ki [7]: 9900 nM | tachyphylaxis effect (FIG. 1) ([3]; contractile responses at 0, 30, 60, 90 min, in words): distinctly less pronounced than that of ABT 229 | % of the initial contraction after the fourth dose [3]: 39±13% | inhibition at 10 µM [8]: 74% | inhibition at 30 µM [8]: 95%

CCC(C)N(C)[C@H]1C[C@@H](C)O[C@@H](O[C@@H]2[C@@H](C)[C@H](O[C@H]3C[C@@](C)(OC)[C@@H](O)[C@H](C)O3)[C@@H](C)C(=O)O[C@H](CC)[C@@](C)(O)[C@H](O)[C@@H](C)C[C@H](C)CC2(C)O)[C@@H]1O (some centres unmarked) [Compound I-c, N-Desmethyl-N-sec-butyl-9-desoxoerythromycin A]
inhibition at 10 µM [8]: 26.5% | inhibition at 30 µM [8]: 70.3%

CC[C@H]1OC(=O)[C@H](C)[C@@H](O[C@H]2C[C@@](C)(OC)[C@@H](O)[C@H](C)O2)[C@H](C)[C@@H](O[C@@H]2O[C@H](C)C[C@H](N(C)CC(C)C)[C@H]2O)C(C)(O)C[C@@H](C)C[C@H](C)[C@@H](O)[C@]1(C)O (some centres unmarked) [Compound I-d, N-Desmethyl-N-isobutyl-9-desoxoerythromycin A]
inhibition at 10 µM [8]: 33.1% | inhibition at 30 µM [8]: 71.4%
